Assay results from US20260364213A1, “RADIOLABELED COMPOUNDS OF TRIMETHOPRIM AND USES THEREOF” (THE TRUSTEES OF THE UNIVERSITY OF PENNSYLVANIA, priority 2023, published 2026).
Where “and” joins values, the source holds several entries; their conditions need not be identical. Equal entries are not always repeated. Entries after “also recorded” stand apart in the source; their conditions may differ. Where two headings read alike, the source gives them in different places.

Tests used:
eDHFR-YFP = molecular target: T1, eDHFR-YFP (Escherichia coli, UniProt P0ABQ4); assay: Radioligand binding to eDHFR-YFP expressing cells; set-up: species or system E. coli
T1 sequence (P0ABQ4 1-159): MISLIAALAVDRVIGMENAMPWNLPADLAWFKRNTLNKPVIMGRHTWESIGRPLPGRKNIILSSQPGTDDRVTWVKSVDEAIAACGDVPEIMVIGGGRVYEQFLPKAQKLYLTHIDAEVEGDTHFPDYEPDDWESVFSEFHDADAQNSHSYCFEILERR
Procedure: Due to the high specific activity of [^211At]At-TMP that limits its working concentration to pM range, [^125I]I-TMP was used for saturation binding studies to determine Bmax.
eDHFR-YFP-positive I45 and SKOV3 cells were plated on 96-well plates (Corning #9102) at the density of 25,000 cells/well and 40,000 cells/well, respectively, in complete growth media 24 hours before the assay. […] After incubation at 37 °C for 90 minutes, the wells were aspirated and washed twice with ice-cold PBS. The radioactivity in each well was measured with a Perkin Elmer Wizard gamma counter. The assay was performed three times in triplicates. […] See, Swillens, Molecular pharmacology. 1995; 47(6):1197-203. The corresponding EC50 values were plotted against the receptor concentration/2 to determine the Kd. See, Hulme, British journal of pharmacology. 2010; 161(6):1219-37. The Bmax values were correlated with the total YFP florescence from the wells, with a correction factor of 2.5 and 2.2 for membrane-bound eDHFR-YFP in I45 and SKOV3, respectively, in order to account for decreased fluorescence per molecule from addition of the membrane localization signal to YFP. See, Wu, Science. 2005; 310(5746):310-4; and Bakholdina, Molecules. 2021; 26(13).
For determination of the Kd of [^211At]At-TMP, the binding assay protocol was repeated in I45 and SKOV3 cells expressing cytoplasmic eDHFR-YFP, using 150 μL of 0.06-60 nM [^125I]I-TMP±10 μM TMP for half of each 96-well plate and 50-260 μL of […] [^211At]At-TMP±10 μM TMP for the remaining half. The Bmax of each plate determined from [^125I]I-TMP binding was divided by the assay volumes used for [^211At]At-TMP to calculate the total receptor concentration ([RT]) in each [^211At]At-TMP well. The ligand depletion (δ) in each [^211At]At-TMP well was obtained by dividing the bound radioactivity by total added radioactivity. The assay was performed four times in triplicates. As derived in Supplemental Methods 1, δ^−1 was plotted against [RT]^−1 to determine the Kd as the slope of the linear best-fit line.
Supplemental Method 1. Measurement of the dissociation constant (Kd) of [^211At]At-TMP binding to eDHFR under non-saturating, ligand-depleting conditions. When [Ligand]<<Kd, ligand depletion (6) at equilibrium is
where [R] is the free receptor concentration and [RT]is the total receptor concentration. Since 6 is non-zero, taking the reciprocal of both sides of the equation yields
[formula] • If a δ^−1 vs. [RT]^−1 graph where y=δ^−1 and x=[RT]^−1 is plot,
Therefore, the slope of the linear best-fit line represents the Kd and the y-intercept is 1.

eDHFR = molecular target: T2, eDHFR (Escherichia coli, UniProt P0ABQ4); conditions: HEK293T-eDHFR-YFP vs HEK 293 WT; 0.037 MBq, 1 hour; 60 min
T2 sequence (P0ABQ4 1-159): T1 sequence (P0ABQ4 1-159)

[1] = In vitro stability in RPMI 1640 medium; format: physicochemical; conditions: 37 °C, up to 6 hours, radio-HPLC
Procedure: The specific activity of [^211At]At-TMP and [^125I]I-TMP was determined by comparison of radioactivity to the area under 288-nm ultraviolet light peak on radio-HPLC. The in vitro stability of [^211At]At-TMP was examined with incubation in Roswell Park Memorial Institute (RPMI) 1640 medium at 37 °C for up to 6 hours, followed by radio-HPLC analysis.

I45 and SKOV3 cells = assay: Cytotoxicity in wild-type and eDHFR-YFP-expressing I45 and SKOV3 cells; format: cell-based, human
Procedure: After 72 hours of incubation, the surviving fraction of the cells was quantified using CellTiter-Glo (Promega #G9243). See, Makvandi, Molecular cancer therapeutics. […] The assay was performed three times in triplicates. […] See, Lee, Journal of nuclear medicine.

I45 cells = assay: Cytotoxicity in I45 cells with subcellular eDHFR-YFP; format: cell-based, human; conditions: for RBE: ref. cytoplasmic
Procedure: (§1) Wild-type and eDHFR-YFP-expressing I45 and SKOV3 cells were seeded on 96-well plates (Corning #3603) at the density of 1,000 cells/well and 3,000 cells/well, respectively, in complete growth media 24 hours before the assay. The following five treatment conditions were applied in complete growth media: 200 μCi/mL ~15 μCi/mL [^211At]At-TMP, 120 μCi/mL-15 μCi/mL free ^211At, 120 μCi/mL-15 μCi/mL [^211At]At-TMP+10 μM TMP, 10 nM-1 μM doxorubicin, and 40 μM−1 mM TMP. After 72 hours of incubation, the surviving fraction of the cells was quantified using CellTiter-Glo (Promega #G9243). See, Makvandi, Molecular cancer therapeutics. 2019; 18(7):1195-204. The assay was performed three times in triplicates. The effective concentration for 50% cell death (EC50) was determined for each treatment condition by fitting the surviving fractions into a non-linear sigmoidal dose-response curve. For eDHFR-YFP-positive cells, the [^211At]At-TMP treatment concentrations were converted to the number of ^211At decays/cell, using the median number of receptors/cell (obtained from YFP fluorescence) and Kd of [^211At]At-TMP. See, Lee, Journal of nuclear medicine. 2020; 61(6):850-6.
(§2) For comparison to the nuclear S-values, the observed cytotoxicity per ^211At decay was also expressed relative to cytoplasmic eDHFR-YFP. […] Finally, the ratio between the isolated cytotoxicity and nuclear S-value was calculated as the RBE for eDHFR-YFP in each subcellular compartment.
(§3) Supplemental Method 2. Calculation of the relative cytotoxicity of ^211At decay in different subcellular compartments. • By the linear-quadratic model for targeted alpha therapy,
(§4) (Survival)=e^−αD-βD^2≈e^−αD • Let N=number of ^211At decays/cell at EC50. Then, the following is obtained:
(§5) ln(0.5)=−αD=−TN • where T is the product of S-value and α, representing cytotoxicity per decay. Let F=fraction of eDHFR in each subcellular compartment. Then, the following can be written:
(§6) [formula] • where capital letters denote the microscopically observed subcellular location of eDHFR and lowercase letters denote the genetically targeted location of eDHFR.
(§7) The measured values of F (FIG. 19) and N (FIG. 28C) were then used to solve for T. DNA-targeted eDHFR observed in the nucleus is assumed to be 100% DNA-bound, and for SKOV3, Nc≈Nm is applied based on the lack of significant difference in EC50.
(§8) Finally, the T values are normalized with Tc to obtain the relative cytotoxicity of ^211At decay in each subcellular compartment compared to the cytoplasm.

SKOV3 cells = assay: Cytotoxicity in SKOV3 cells with subcellular eDHFR-YFP; format: cell-based, human; conditions: for RBE: ref. cytoplasmic
Procedure: as §1, §2, §3, §4, §5, §6, §7, §8

hamster fibroblasts = conditions: predominantly nuclear lead-212 vs predominantly cytoplasmic polonium-210; cited from earlier work

In the case of COc1cc(Cc2cnc(N)nc2N)cc([125I])c1OC [[^125I]mI-TMP, 5-(3-iodo-4,5-dimethoxybenzyl)pyrimidine-2,4-diamine], the Kd (eDHFR-YFP; I45 cells, read-out: Kd) is reported as 0.65 ± 0.11 nM, the Kd (eDHFR-YFP; SKOV3 cells, read-out: Kd) is reported as 0.13 ± 0.17 nM and the “uptake of the radiotracer in eDHFR+ cells relative to WT cells” value (eDHFR) is reported as ~ 50 fold and ~ 30 fold.

In the case of COc1cc(Cc2cnc(N)nc2N)cc([211At])c1OC [[^211At]At-TMP], the “in vitro stability in aqueous media” value [1] is reported as “stability of [^211At]TMP in aqueous media for up to 6 hours”.

With COc1cc(Cc2cnc(N)nc2N)cc([At])c1OC [[^211At]At-TMP] the “cytotoxicity in eDHFR-expressing compared to wild-type cells” value (I45 and SKOV3 cells; 72 h) was “significantly higher cytotoxicity”, the “cytotoxicity per bound decays/cell, DNA-bound and nuclear eDHFR” value (I45 and SKOV3 cells; DNA-bound P=0.017 I45, P=0.012 SKOV3, nuclear P=0.0006 I45, P=0.004 SKOV3) was “the highest cytotoxicity was observed with DNA-bound eDHFR (P=0.017 in I45 and P=0.012 in SKOV3), followed by nuclear eDHFR” and the pharmacologic cytotoxicity (I45 and SKOV3 cells; up to 34 μM (so in the source)) was “absence of pharmacologic cytotoxicity”. For the same compound, the “difference in cytotoxicity wild-type vs eDHFR-expressing, blocked” value (I45 and SKOV3 cells; with 10 μM cold TMP) was “disappearance; also recorded: comparable across the wild-type and eDHFR-YFP-expressing cells”, the “in vitro stability in aqueous media” value [1] was “stable at 37 °C in aqueous media” and the “relative cytotoxicity with reference to cytoplasmic eDHFR” value (shortened to “relative cytotoxicity with reference”) (I45 cells; I45, DNA-bound) was 10. For the same compound, the RBE (I45 cells; I45, DNA-bound) was 3.1, the “cytotoxicity, membrane-bound compared to cytoplasmic eDHFR” value (I45 cells; I45, P=0.005) was “higher cytotoxicity compared to cytoplasmic eDHFR” and the “relative cytotoxicity with reference” value (I45 cells; I45, membrane-bound) was 2.8. The RBE (I45 cells; I45, membrane-bound) was 3.5, the “relative cytotoxicity with reference” value (I45 cells; I45, nuclear) was 7.4 and the RBE (I45 cells; I45, nuclear) was 2.3. For the same compound, the “relative cytotoxicity with reference” value (SKOV3 cells; SKOV3, DNA-bound) was 13, the RBE (SKOV3 cells; SKOV3, DNA-bound) was 3.2 and the “relative cytotoxicity with reference” value (SKOV3 cells; SKOV3, membrane-bound) was 1.0. The RBE (SKOV3 cells; SKOV3, membrane-bound) was 1.4, the “relative cytotoxicity with reference” value (SKOV3 cells; SKOV3, nuclear) was 8.5 and the RBE (SKOV3 cells; SKOV3, nuclear) was 2.0. For the same compound, the “binding affinity compared to [^125I]I-TMP” value (eDHFR-YFP; I45 and SKOV3 cells) was “lower binding affinity”, the Kd (eDHFR-YFP; Kd, I45 and SKOV3 cells) was 2.5 to 4.8 nM and the Kd (eDHFR-YFP; Kd, I45 cells) was 4.8 ± 0.1 nM. For the same compound, the Kd (eDHFR-YFP; Kd, SKOV3 cells) was 2.5 ± 0.2 nM.

In the case of lead-212, the “RBE relative to gamma irradiation” value (hamster fibroblasts) is listed as 4.
